Values of other authors in patent publication US20050013858A1, “Oral pharmaceutical compositions containing terbinafine” (priority 2001, published 2005).

Assays:
[1] = target: CYP2D6 (Homo sapiens, UniProt P10635)
[2] = steady state, in comparison to the single dose

CYP2D6, sequence (P10635 whole entry): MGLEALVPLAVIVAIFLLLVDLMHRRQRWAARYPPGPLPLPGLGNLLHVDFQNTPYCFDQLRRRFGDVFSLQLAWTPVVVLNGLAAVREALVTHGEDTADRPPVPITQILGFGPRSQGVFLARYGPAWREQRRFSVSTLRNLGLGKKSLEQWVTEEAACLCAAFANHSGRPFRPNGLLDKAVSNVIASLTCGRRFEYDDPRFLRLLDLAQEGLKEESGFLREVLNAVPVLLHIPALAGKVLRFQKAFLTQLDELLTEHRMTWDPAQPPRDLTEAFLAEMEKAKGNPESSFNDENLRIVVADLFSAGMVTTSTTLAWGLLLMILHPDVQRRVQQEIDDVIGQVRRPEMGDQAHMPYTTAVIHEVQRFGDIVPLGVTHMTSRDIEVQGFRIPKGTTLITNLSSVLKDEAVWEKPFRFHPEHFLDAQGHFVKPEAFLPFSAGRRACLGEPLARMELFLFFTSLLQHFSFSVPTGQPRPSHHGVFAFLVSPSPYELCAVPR

inhibition of CYP2D6 [1]: potent inhibitor
increase in AUC (administered with a fat-rich meal): 42%
effective half-life (in vivo): ca. 36 hours
reduction of clearance (patients with renal impairment (creatinine clearance ≤50 ml/min) or hepatic cirrhosis): approximately 50%
area under the curve over 24 hours (AUC) (single 250 mg terbinafine dose): about 4.76 microgram.hour/millilitre
factor of AUC increase in steady state versus single dose [2]: 2.5
increase of Cmax in steady state versus single dose [2]: 25%
SMILES: CN(C/C=C/C#CC(C)(C)C)Cc1cccc2ccccc12 [terbinafine]
